Results from patent US3985779A, “M-phenoxyphenyl propionic acid derivatives and preparation thereof” (Eisai Co., Ltd., priority 1973, dated 1976).
Read-outs that look alike come from different tables or passages of the source.

Tests used:
stomachs of the rats = format: in vivo; conditions: score 0 (nothing unusual) to 10 (considerable irritability with bleeding)
From the text: Observation of gastric irritability
Gastric irritability due to oral administration of the compounds as edema inhibitory agent was studied by macroscopical observation of the dissected stomachs of the rats which had been employed for determination of the edema inhibitions mentioned in the preceding paragraphs. The degrees of the irritability observed were scored in the 0 to 10 ratings depending upon the extent of errosions and bleedings of the stomachs, wherein the rating of 0(zero) means "nothing unusual", the rating of 10 means a state of considerable gastric irritability with bleeding and the remainders mean the intermediate degree of gastric irritability.

in vivo = conditions: mouse, po
Description: Comparison of toxicity of the phenyl propionic acid derivatives of the present invention and that of the other known anti-inflammatory agents was carried out in mice.

yeast-induced pyrexia = assay: Antipyretic activity to the yeast-treated rats (Experiment I); format: in vivo, rats (Wistar strain male)
Description: To Wistar strain male rats having about 300 - 350 grs. body weight, an aqueous suspension of yeast was subcutaneously injected to induce pyrexia.
At the lapse of 4 hours since the dose of the yeast suspension, the compounds under test given in hereinaftermentioned Table 10 in a form of suspension in a 5% gum arabic aqueous solution are orally administered. The rectal temperatures of the rats were measured periodically by means of a thermister-type thermometer sold by Japan Koden K.K. As control, said 5% gum arabic aqueous solution alone was administered.

writhing syndrome = assay: Analgesic activity: antagonism to acetic acid writhing syndrome in mice (Experiment J); format: in vivo, mice (dd strain male)
Description: Analgesic activity of the compound of the present invention in comparison with the known compounds.
Analgesic activity of the compound was tested as the measure of antagonism to writhing syndrome appeared when 0.1 ml/10g of 0.7% acetic acid was intraperitoneally injected to the dd strain male mice having 17 - 20 grs. body weight which had been abstinence from food for 18 hours.
The compounds under test were orally administered in a form of suspension in a 5% aqueous solution of gum arabic. After one hour from the administration, the onset times required for the writhing syndrome were scored.
In another Experiment in the combined use of the compounds under test and Codeine phosphate, 10 - 20 mg/kg of Codeine phosphate were orally administered immediatly after the oral administration of the compounds under test.

[1] = tested on: Carrageenin-induced edema; assay: Inhibitory activity on Carrageenin-induced Edema in rats (Experiment A); format: in vivo, rats (male Wistar); conditions: 3 hours after Carrageenin
Description: Inhibitory activity on Carrageenin-induced Edema in rats
Carrageenin was used as the agent for inducing edema and 5 male rats of Wistar strain having body weight of about 150 grs. after fasting for 16-17 hours were used as test animals. The inhibitory activity of the test compounds were determined with the paw edema method in accordance with Winter C. A. et al; Proc. Soc. Exp. Biol. Med. 111, 544 (1962).
The compounds were suspended in an aqueous solution of gum arabic and the same were orally administered to the rats at 1 hour before the injection of Carrageenin.
The observation was effected by measuring, after 3 hours the administration of the Carrageenin, the enlarged volumes of hind paw of the rats.

Kaolin-induced edema = assay: Inhibitory activity on Kaolin-induced Edema in Rats (Experiment B); format: in vivo
Dextran-induced edema = assay: Inhibitory activity on dextran-induced edema in rats (Experiment C); format: in vivo
Description: Inhibitory activity on dextran-induced edema in rats Experiment was carried out in the manner same as those of the preceding Experiments in which dextran was employed as irritant substance.

ARRS-induced edema = assay: Inhibitory activity on anti-rat-rabbit serum (ARRS)-induced edema in rats (Experiment D); format: in vivo
Description: Inhibitory activity on anti-rat-rabbit serum (ARRS)-induced edema in rats Similar Experiments was carried out by using ARRS as irritant substance.

Compound: CC(=O)Oc1ccccc1C(=O)O [Aspirin]
- Degree of gastric irritability (stomachs of the rats; 100 mg/kg oral): 10
- LD50 (in vivo): 1600 mg/kg
- body temperature relative to normal (in words) (yeast-induced pyrexia; 320 mg/kg p.o.): body temperature injuriously depressed below the normal body temperature
- Change in rectal temperature, mean ± S.E. (yeast-induced pyrexia; 1 hr, 80 mg/kg p.o.): -0.18 ± 0.10
- Change in rectal temperature, mean ± S.E. (yeast-induced pyrexia; 1 hr, 160 mg/kg p.o.): -0.48 ± 0.23
- Change in rectal temperature, mean ± S.E. (yeast-induced pyrexia; 1 hr, 320 mg/kg p.o.): -0.75 ± 0.10
- Change in rectal temperature, mean ± S.E. (yeast-induced pyrexia; 3 hrs, 80 mg/kg p.o.): -0.25 ± 0.18
- Change in rectal temperature, mean ± S.E. (yeast-induced pyrexia; 3 hrs, 160 mg/kg p.o.): -1.05 ± 0.18
- Change in rectal temperature, mean ± S.E. (yeast-induced pyrexia; 3 hrs, 320 mg/kg p.o.): -1.68 ± 0.28
- Change in rectal temperature, mean ± S.E. (yeast-induced pyrexia; 5 hrs, 80 mg/kg p.o.): -0.20 ± 0.12
- Change in rectal temperature, mean ± S.E. (yeast-induced pyrexia; 5 hrs, 160 mg/kg p.o.): -0.95 ± 0.18
- Change in rectal temperature, mean ± S.E. (yeast-induced pyrexia; 5 hrs, 320 mg/kg p.o.): -1.30 ± 0.29
- Onset time of writhing syndrome, mean ± S.E. (writhing syndrome; 10 mg/kg p.o. combined with Codeine Phosphate 10 mg/kg): 5.4 ± 0.4 min
- Onset time of writhing syndrome, mean ± S.E. (writhing syndrome; 10 mg/kg p.o. combined with Codeine Phosphate 20 mg/kg): 9.6 ± 1.8 min
- Onset time of writhing syndrome, mean ± S.E. (writhing syndrome; 160 mg/kg p.o. combined with Codeine Phosphate 10 mg/kg): 6.2 ± 0.6 min
- Onset time of writhing syndrome, mean ± S.E. (writhing syndrome; 160 mg/kg p.o. combined with Codeine Phosphate 20 mg/kg): 11.1 ± 1.6 min
- minimal effective dose (writhing syndrome; Mus musculus, 1 h, single oral administration, read-out: dose with significant antagonism / retardation of writhing syndrome): 160 mg/kg
- Onset time of writhing syndrome, mean ± S.E. (writhing syndrome; test compound alone, 10 mg/kg p.o.): 5.2 ± 1.4 min
- Onset time of writhing syndrome, mean ± S.E. (writhing syndrome; test compound alone, 160 mg/kg p.o.): 5.9 ± 0.8 min

Compound: CC(C(=O)O)c1cccc(Oc2ccccc2)c1 (stereo not drawn) [Compound (2), reference compound]
- % of Inhibition ([1]; oral 8.0 mg/kg): 31%
- Edema density ± S.E. ([1]; oral 8.0 mg/kg): .373 ± .039
- % of Inhibition ([1]; oral 10.0 mg/kg, 10 mg/kg): 35%
- Edema density ± S.E. ([1]; oral 10.0 mg/kg, 10 mg/kg): .352 ± .063
- Edema D. ± S.E. (Kaolin-induced edema; after 3 hrs, oral 8 mg/kg): .418 ± .040
- % of Inhibition (Kaolin-induced edema; after 3 hrs, oral 40 mg/kg): 49%
- Edema D. ± S.E. (Kaolin-induced edema; after 3 hrs, oral 40 mg/kg): .212 ± .023
- % of Inhibition (Kaolin-induced edema; after 5 hrs, oral 8 mg/kg): 11%
- Edema D. ± S.E. (Kaolin-induced edema; after 5 hrs, oral 8 mg/kg): .499 ± .048
- % of Inhibition (Kaolin-induced edema; after 5 hrs, oral 40 mg/kg): 48%
- Edema D. ± S.E. (Kaolin-induced edema; after 5 hrs, oral 40 mg/kg): .292 ± .031
- Edema D. ± S.E. (Kaolin-induced edema; after 7 hrs, oral 8 mg/kg): .612 ± .067
- % of Inhibition (Kaolin-induced edema; after 7 hrs, oral 40 mg/kg): 33%
- Edema D. ± S.E. (Kaolin-induced edema; after 7 hrs, oral 40 mg/kg): .406 ± .057
- % of Inhibition (Dextran-induced edema; after 2 hrs, oral 8 mg/kg): 5%
- Edema D. ± S.E. (Dextran-induced edema; after 2 hrs, oral 8 mg/kg): .795 ± .031
- % of Inhibition (Dextran-induced edema; after 2 hrs, oral 40 mg/kg): 1%
- Edema D. ± S.E. (Dextran-induced edema; after 2 hrs, oral 40 mg/kg): .846 ± .013
- % of Inhibition (Dextran-induced edema; after 3 hrs, oral 8 mg/kg): 1%
- Edema D. ± S.E. (Dextran-induced edema; after 3 hrs, oral 8 mg/kg): .749 ± .026
- % of Inhibition (Dextran-induced edema; after 3 hrs, oral 40 mg/kg): -3%
- Edema D. ± S.E. (Dextran-induced edema; after 3 hrs, oral 40 mg/kg): .773 ± .027
- % of Inhibition (ARRS-induced edema; after 2 hrs, oral 8 mg/kg): 7%
- Edema D. ± S.E. (ARRS-induced edema; after 2 hrs, oral 8 mg/kg): .634 ± .048
- % of Inhibition (ARRS-induced edema; after 2 hrs, oral 40 mg/kg): 19%
- Edema D. ± S.E. (ARRS-induced edema; after 2 hrs, oral 40 mg/kg): .553 ± .038
- % of Inhibition (ARRS-induced edema; after 3 hrs, oral 8 mg/kg): 16%
- Edema D. ± S.E. (ARRS-induced edema; after 3 hrs, oral 8 mg/kg): .599 ± .040
- % of Inhibition (ARRS-induced edema; after 3 hrs, oral 40 mg/kg): 26%
- Edema D. ± S.E. (ARRS-induced edema; after 3 hrs, oral 40 mg/kg): .531 ± .026
- Degree of gastric irritability (stomachs of the rats; 50 mg/kg oral): 3

Compound: COc1ccc2c(c1)c(CC(=O)O)c(C)n2C(=O)c1ccc(Cl)cc1 [INDOMETHACIN]
- LD50 (in vivo): 37.5 mg/kg
